The record followed here is patent publication US8273738B2, “Imidazole derivatives” (priority 2006, dated 2012).

Each structure is given as a SMILES string. Read-outs that look alike come from different tables or passages of the source. A value given as a limit tells only on which side of the number the result lay.

Test [1] deals with rats with chronic constriction nerve injury. In words: Analgesic effect in rats with chronic constriction nerve injury (von Frey filament). The test is classed as in vivo, rat. As to conditions: oral, dose of 50 mg/kg or less, one hour after administration, von Frey filaments. The source says:
Rats with chronic constriction nerve injury were produced by partially modifying the method of Mosconi and Kruger et al. (Pain, vol. 64, pp. 37-57 (1996))
Male Crl:CD(SD) rats were used for the experiments. Under pentobarbital anesthesia, the sciatic nerve of the left hind limb of the rat was exfoliated, and the exfoliated region was wrapped with a polyethylene tube (trade name: Intramedic, size: PE-60, manufactured by Becton Dickinson and Company) of 2 mm in length. On days 14 to 21 after the surgery, the rats were placed in an acrylic connected cage with a wire mesh floor (900 mm (length)×210 mm (depth)×140 mm (height)) consisting of 4 cages connected in a row and allowed to acclimate to the environment for at least 20 minutes, and then, the pain was evaluated.
The von Frey filament (trade name: touch test sensory evaluator, Model number: model 58011, manufactured by Muromachi Kikai) was used to evaluate pain, and the results were calculated as a pain threshold. That is, by using a von Frey filament of different stimulus intensity, stimulation was given to the plantar surface of the injured side of rats with chronic constriction nerve injury, and the stimulus intensity to cause paw withdrawal response was obtained. Then, the 50% pain threshold (Paw withdrawal threshold) (g) was calculated by the up down method of Dixon [Annual Review of Pharmacology and Toxicology, vol. 20, pp. 441-462 (1980)].
In the evaluation of the test compound, rats with 50% pain threshold of less than 4 g were used, and the test compound was dissolved in a 0.5% aqueous methyl cellulose solution and orally administered at a dose of 5 mL/kg. One hour after the administration, the pain threshold was measured using von Frey filaments.

The target of test [2] is T1, human CB2 receptor (Homo sapiens, UniProt P34972).
T1 construct: expressed in transfected cells
The experiment in a line: GTPγS binding experiment via human CB2 receptor (membrane fraction of CHO-K1 cells). As to conditions: for Emax: read-out: Emax value (maximum effect of CP55940 as 100%). The test is classed as biochemical. As for the experimental part:
A test was carried out according to the method of Hillard et al. [The Journal of Pharmacology and Experimental Therapeutics, vol. 289, p. 1427 (1999)]. As for a membrane specimen, a membrane fraction was prepared from CHO-K1 cells in which a human CB2 receptor [Nature, vol. 365, pp. 61-65 (1993)] was stably expressed and used. The membrane specimen (final concentration: 40 μg of protein/mL) was incubated together with a test compound and [^35S]GTPγS (manufactured by PerkinElmer) (final concentration: 0.05 nmol/L) in an assay buffer (50 mmol/L Tris-HCl buffer (pH 7.4), 100 mmol/L NaCl, 1 mmol/L EDTA, 3 mmol/L MgCl2, and 0.1% bovine serum albumin) containing 20 μmol/L guanosine 5′-diphosphate (GDP) at 30° C. for 1 hour, and the resulting mixture was filtered using a glass filter GF/B (manufactured by Whatman). After the glass filter was washed with the assay buffer, the radioactivity on the glass filter was measured using a liquid scintillation counter (TRI-CARB 2700TR, manufactured by Packard). The binding amount in the presence of 10 μmol/L GTPγS was considered to be a non-specific binding amount, and a difference between the total binding amount and the non-specific binding amount was considered to be a specific binding amount. The ratio of increase in the specific binding amount in the presence of the test compound to the specific binding amount in the absence of the test compound was considered to be an agonistic activity of the test compound. The concentration of the test compound that produces 50% of the maximum effect (EC50 value) was calculated by performing a nonlinear regression analysis using the concentration-response data. The percentage of the maximum effect of the test compound (Emax value) was calculated by considering the maximum effect of CP55940 (manufactured by Tocris) measured at the same time as 100%.
For orientation: GTPγS is a poorly hydrolysed GTP analogue; its binding reports G protein activation.

The target of test [3] is T2, CB2 receptor (Rattus norvegicus, UniProt Q9QZN9).
T2 construct: from tissue; host or cells: rat spleen membrane specimen
T2 sequence (Q9QZN9 1-360): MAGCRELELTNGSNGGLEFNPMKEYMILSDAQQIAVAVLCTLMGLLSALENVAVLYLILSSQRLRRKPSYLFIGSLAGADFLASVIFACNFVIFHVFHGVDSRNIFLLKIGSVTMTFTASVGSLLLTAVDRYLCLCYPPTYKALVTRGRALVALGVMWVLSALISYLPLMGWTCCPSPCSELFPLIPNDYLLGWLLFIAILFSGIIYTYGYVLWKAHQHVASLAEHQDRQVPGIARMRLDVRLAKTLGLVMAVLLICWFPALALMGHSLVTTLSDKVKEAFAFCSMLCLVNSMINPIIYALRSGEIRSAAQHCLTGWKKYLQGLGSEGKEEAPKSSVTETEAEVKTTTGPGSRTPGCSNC
In words: Cannabinoid CB2 receptor-binding activity ([3H]CP55940 binding experiment), rat spleen membrane specimen. As for the experimental part:
A test was carried out according to the method of Hillard et al. [The Journal of Pharmacology and Experimental Therapeutics, vol. 289, p. 1427 (1999)]. A rat forebrain membrane specimen and a rat spleen membrane specimen were prepared and used in a binding experiment for a CB1 receptor and a binding experiment for a CB2 receptor, respectively. The membrane specimen (forebrain: final concentration of 0.5 mg of protein/mL, spleen: final concentration of 2 mg of protein/mL) was incubated together with a test compound and [^3H]CP55940 (manufactured by PerkinElmer) ((−)-cis-3-[2-hydroxy-[3,5-^3H]-4-(1,1-dimethylheptyl)phenyl]-trans-4-(3-hydroxypropyl)cyclohexanol)) (final concentration: 0.5 nmol/L) in an assay buffer (50 mmol/L Tris-HCl buffer (pH 7.4), 1 mmol/L EDTA and 3 mmol/L MgCl2) containing 0.1% bovine serum albumin at 25° C. for 1 hour, and the resulting mixture was filtered using a glass filter GF/C (manufactured by Whatman) treated with 1% polyethyleneimine. After the glass filter was washed with the assay buffer containing 0.2% bovine serum albumin, the radioactivity on the glass filter was measured using a liquid scintillation counter (TRI-CARB 2700TR, manufactured by Packard). The binding amount in the presence of 10 μmol/L […] (manufactured by Tocris) ((R)-(+)-[2,3-dihydro-5-methyl-3-(4-morpholinylmethyl)pyrrolo[1,2,3-de]-1,4-benzoxazin-6-yl]-1-naphthalenylmethanone) was considered to be a non-specific binding amount, and a difference between the total binding amount and the non-specific binding amount was considered to be a specific binding amount. The 50% inhibitory concentration (IC50 value) of the test compound against the specific binding was obtained, and the Ki value of the test substance was calculated from the 50% inhibitory concentration and the Kd value of the [^3H]CP55940 binding.

Setting [4] is: rat spleen membrane, [3H]CP55940 0.5 nmol/L, 25° C., 1 hour, read-out: Ki value against the CB2 receptor.

T1 sequence (P34972 whole entry): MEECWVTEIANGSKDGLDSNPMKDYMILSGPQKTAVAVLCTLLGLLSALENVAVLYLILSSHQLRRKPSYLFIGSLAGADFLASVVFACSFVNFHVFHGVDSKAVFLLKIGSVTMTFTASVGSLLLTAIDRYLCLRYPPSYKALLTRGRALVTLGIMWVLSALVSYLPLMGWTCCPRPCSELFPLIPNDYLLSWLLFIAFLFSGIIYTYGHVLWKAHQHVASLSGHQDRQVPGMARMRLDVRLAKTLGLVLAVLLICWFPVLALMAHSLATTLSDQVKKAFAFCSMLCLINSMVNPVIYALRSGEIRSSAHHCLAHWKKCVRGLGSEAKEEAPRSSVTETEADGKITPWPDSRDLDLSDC

What is called EC50 is the concentration that produces a half-maximal response. In general, Emax refers to the maximal effect, on the per cent scale that the assay sets. In general, Ki refers to a dissociation constant, usually derived from enzyme kinetics or from competition with a known ligand. With `CCN(CC)C(=O)c1cc(-c2cn(CC3CCOCC3)c(C(C)(C)C)n2)ccc1Cl` [Compound 65, 2-Chloro-5-(2-tert-butyl-1-(tetrahydropyran-4-ylmethyl)-1H-imidazol-4-yl)-N,N-diethylbenzamide], in test [1], the “50% pain threshold (paw withdrawal threshold)” value (from here on “50% pain threshold”) is listed as “significantly increased the pain threshold”. For the same molecule, in test [2], the EC50 was < 1000 nM and the Emax is > 30%. Besides, the Ki in test [3] was < 1000 nM.

`CCN(CC)C(=O)c1cc(-c2cn(CC3CCOCC3)c(C(C)(C)C)n2)ccc1F.Cl` [Compound 66, 5-(2-tert-Butyl-1-(tetrahydropyran-4-ylmethyl)-1H-imidazol-4-yl)-N,N-diethyl-2-fluorobenzamide hydrochloride]: the “50% pain threshold” value in test [1] is “significantly increased the pain threshold”. In addition, in test [2], the concentration for a half-maximal effect (EC50) is < 1000 nM and the Emax was > 30%. Further, the Ki in test [3] was < 1000 nM.

Take `CC(C)(C)c1nc(-c2cccc([N+](=O)[O-])c2)cn1CC1CCOCC1` [Compound 70, 2-tert-Butyl-4-(3-nitrophenyl)-1-(tetrahydropyran-4-ylmethyl)-1H-imidazole]: the “50% pain threshold” value in test [1] is “significantly increased the pain threshold”. For the same molecule, in test [2], the EC50 is < 1000 nM and the Emax is > 30%. The inhibition constant Ki in test [3] is < 1000 nM.

Consider `CCN(CC)C(=O)c1cccc(-c2cn(CC3CCOCC3)c(C(C)(C)C)n2)c1.Cl` [Compound 76, 3-(2-tert-Butyl-1-(tetrahydropyran-4-ylmethyl)-1H-imidazol-4-yl)-N,N-diethylbenzamide hydrochloride], for which the “50% pain threshold” value in test [1] is recorded as “significantly increased the pain threshold”. In addition, in test [2], the EC50 was < 1000 nM and the Emax was > 30%. Besides, in test [3], the Ki was < 1000 nM.

Take `CCN(C)C(=O)c1cccc(-c2cn(CC3CCOCC3)c(C(C)(C)C)n2)c1.Cl` [Compound 83, 3-(2-tert-Butyl-1-(tetrahydropyran-4-ylmethyl)-1H-imidazol-4-yl)-N-ethyl-N-methylbenzamide hydrochloride]: the “50% pain threshold” value in test [1] is recorded as “significantly increased the pain threshold”. For the same molecule, in test [2], the EC50 was < 1000 nM and the Emax is > 30%. The Ki in test [3] is < 1000 nM.

Regarding `CCN(CC)C(=O)c1cncc(-c2cn(CC3CCOCC3)c(C(C)(C)C)n2)c1` [Compound 85, 5-(2-tert-Butyl-1-(tetrahydropyran-4-ylmethyl)-1H-imidazol-4-yl)-N,N-diethylnicotinamide], the “50% pain threshold” value in test [1] was “significantly increased the pain threshold”. Besides, in test [2], the EC50 was < 1000 nM and the Emax was > 30%. Moreover, the Ki in test [3] is < 1000 nM.

For the molecule `CCN(C)C(=O)c1cc(-c2cn(CC3CCOCC3)c(C(C)(C)C)n2)cs1` [Compound 102, 4-[2-tert-Butyl-1-(tetrahydropyran-4-ylmethyl)-1H-imidazol-4-yl]-N-ethyl-N-methylthiophene-2-carboxamide], the “50% pain threshold” value in test [1] is on record as “significantly increased the pain threshold”. In addition, in test [2], the EC50 was < 1000 nM and the Emax was > 30%. In test [3], the Ki is < 1000 nM.

In the case of `CCN(CC)C(=O)c1cncc(-c2cn(CC3CCOCC3)c(C(C)(C)C)n2)n1` [Compound 143, 6-[2-tert-Butyl-1-(tetrahydropyran-4-ylmethyl)-1H-imidazol-4-yl]-N,N-diethylpyrazine-2-carboxamide], the “50% pain threshold” value in test [1] is reported as “significantly increased the pain threshold”. In addition, in test [2], the EC50 is < 1000 nM and the Emax is > 30%. Moreover, in test [3] (setting [4]), the Ki is < 1000 nM.

Take `CN(CC#N)C(=O)c1cncc(-c2cn(CC3CCOCC3)c(C(C)(C)C)n2)n1` [Compound 207, 6-[2-tert-Butyl-1-(tetrahydropyran-4-ylmethyl)-1H-imidazol-4-yl]-N-cyanomethyl-N-methylpyrazine-2-carboxamide]: the “50% pain threshold” value in test [1] is on record as “significantly increased the pain threshold”. The inhibition constant Ki in test [3] (setting [4]) is < 1000 nM.
